Test results as given in patent US20220389061A1, “IMMUNOMODULATORS” (priority 2019, published 2022).
Where two headings read alike, the source gives them in different places. Starred links: 1 amine or outer side, 2 acyl side, 3 side chain; linkers in the order of their positions; H or OH if unused. Positions of bridges follow the written chain, without caps; N, C: chain ends. Non-standard residues stand in square brackets, D forms with d. Residues, ends and D or L forms follow the SMILES beside them. Groups on a side chain read outwards from the residue. *: point of attachment. Trp(1-CH2CO2Me) = COC(=O)Cn1cc(C[C@H](N)C(=O)O)c2ccccc21; Trp(1-CH2COOH) = N[C@@H](Cc1cn(CC(=O)O)c2ccccc12)C(=O)O; X1 = S=C(Nc1ccc2c(c1)Cc1ccccc1-2)*; X50 = COc1cc(NC(=S)*)ccc1-c1cnco1; Hyp = O=C(O)[C@@H]1C[C@@H](O)CN1; X3 = S=C(Nc1ccc(Oc2ccccc2)cc1)*; NMeNle = CCCC[C@H](NC)C(=O)O; X9 = Fc1ccc(NC(=S)*)c(Cl)c1; X5 = S=C(Nc1cccc2ccccc12)*; X52 = c1ccc2c(N*)c[nH]c2c1; X59 = S=C(Nc1ccc2nsnc2c1)*; 3Abz = Nc1cccc(C(=O)O)c1; NMeA = CN[C@@H](C)C(=O)O; βNA = c1ccc2cc(N*)ccc2c1; Dab = NCC[C@H](N)C(=O)O; X45 = c1ccc2sc(N*)cc2c1; Dap = NC[C@H](N)C(=O)O; X15 = Cc1ccc(Cl)cc1N*; CO = O=C([*:1])[*:2]; NHPh = c1ccc(N*)cc1

Target: T1, PD-1/PD-L1 (Homo sapiens, UniProt Q9NZQ7)
T1 construct: TVMV protease site linker (C); made in house; host or cells: HEK293T cells
T1 sequence (Q9NZQ7 18-239): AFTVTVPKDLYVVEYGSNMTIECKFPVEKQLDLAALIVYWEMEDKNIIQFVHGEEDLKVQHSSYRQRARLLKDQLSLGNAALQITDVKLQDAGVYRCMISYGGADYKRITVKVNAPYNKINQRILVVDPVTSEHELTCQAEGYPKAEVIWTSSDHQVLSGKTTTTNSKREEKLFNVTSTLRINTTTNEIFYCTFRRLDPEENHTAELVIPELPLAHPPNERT
Assay: PD-1/PD-L1 Homogenous Time-Resolved Fluorescence (HTRF) binding assay
How it was run: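 HTRF read-out using europium cryptate anti-Ig (1 nM) and APC anti-His (20 nM) on extracellular-domain fusion proteins in dPBS/0.1% BSA/0.05% Tween-20. Inhibitor first incubated 15 min with 10 nM PD-L1-His, followed by 20 nM PD-1-Ig for another 15 min.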

[1] = PD-L1-His 10 nM pre-incubated with inhibitor, PD-1-Ig 20 nM, read-out: HTRF IC50

Row | Compound | IC50 [1] [nM] | IC50 [nM]
1 | CCCC[C@H]1C(=O)N(C)[C@@H](CCCC)C(=O)N[C@@H](CC(C)C)C(=O)N[C@H](C(=O)NCC(N)=O)CSCC(=O)N[C@@H](Cc2ccc(O)cc2)C(=O)N(C)[C@@H](C)C(=O)N[C@@H](CC(N)=O)C(=O)N2CCC[C@H]2C(=O)N[C@@H](CNC(=O)Nc2ccc3ccccc3c2)C(=O)N[C@@H](CC(C)C)C(=O)N2C[C@H](O)C[C@H]2C(=O)N[C@@H](Cc2c[nH]c3ccccc23)C(=O)N[C@@H](CCNC(=O)Nc2ccc3ccccc3c2)C(=O)N[C@@H](Cc2cn(CC(=O)O)c3ccccc23)C(=O)N1C [Example 3001] ({CH2CO}-Y[NMeA]NP[Dap]([CO-βNA])L[Hyp]W[Dab]([CO-βNA])[Trp(1-CH2COOH)][NMeNle][NMeNle]LCG-NH2; thioether N-14) | – | 7.3
2 | CCCC[C@H]1C(=O)N(C)[C@@H](CCCC)C(=O)N[C@@H](CC(C)C)C(=O)N[C@H](C(=O)NCC(N)=O)CSCC(=O)N[C@@H](Cc2ccc(O)cc2)C(=O)N(C)[C@@H](C)C(=O)N[C@@H](CC(N)=O)C(=O)N2CCC[C@H]2C(=O)N[C@@H](CNC(=S)Nc2ccc(-c3cnco3)c(OC)c2)C(=O)N[C@@H](CC(C)C)C(=O)N2C[C@H](O)C[C@H]2C(=O)N[C@@H](Cc2c[nH]c3ccccc23)C(=O)N[C@@H](CCN)C(=O)N[C@@H](Cc2cn(CC(=O)O)c3ccccc23)C(=O)N1C [Example 1028] ({CH2CO}-Y[NMeA]NP[Dap](X50)L[Hyp]W[Dab][Trp(1-CH2COOH)][NMeNle][NMeNle]LCG-NH2; thioether N-14) | 4.4 | –
3 | CCCC[C@H]1C(=O)N(C)[C@@H](CCCC)C(=O)N[C@@H](CC(C)C)C(=O)N[C@H](C(=O)NCC(N)=O)CSCC(=O)N[C@@H](Cc2ccc(O)cc2)C(=O)N(C)[C@@H](C)C(=O)N[C@@H](CC(N)=O)C(=O)N2CCC[C@H]2C(=O)N[C@@H](CNC(=S)Nc2ccc(Oc3ccccc3)cc2)C(=O)N[C@@H](CC(C)C)C(=O)N2C[C@H](O)C[C@H]2C(=O)N[C@@H](Cc2c[nH]c3ccccc23)C(=O)N[C@@H](CCN)C(=O)N[C@@H](Cc2cn(CC(=O)O)c3ccccc23)C(=O)N1C [Example 1045] ({CH2CO}-Y[NMeA]NP[Dap](X3)L[Hyp]W[Dab][Trp(1-CH2COOH)][NMeNle][NMeNle]LCG-NH2; thioether N-14) | 3.3 | –
4 | CCCC[C@H]1C(=O)N(C)[C@@H](CCCC)C(=O)N[C@@H](CC(C)C)C(=O)N[C@H](C(=O)NCC(N)=O)CSCC(=O)N[C@@H](Cc2ccc(O)cc2)C(=O)N(C)[C@@H](C)C(=O)N[C@@H](CC(N)=O)C(=O)N2CCC[C@H]2C(=O)N[C@@H](CNC(=S)Nc2ccc(Oc3ccccc3)cc2)C(=O)N[C@@H](CC(C)C)C(=O)N2C[C@H](O)C[C@H]2C(=O)N[C@@H](Cc2c[nH]c3ccccc23)C(=O)N[C@@H](CCNC(=S)Nc2ccc(Oc3ccccc3)cc2)C(=O)N[C@@H](Cc2cn(CC(=O)O)c3ccccc23)C(=O)N1C [Example 1046] ({CH2CO}-Y[NMeA]NP[Dap](X3)L[Hyp]W[Dab](X3)[Trp(1-CH2COOH)][NMeNle][NMeNle]LCG-NH2; thioether N-14) | 11 | –
5 | CCCC[C@H]1C(=O)N(C)[C@@H](CCCC)C(=O)N[C@@H](CC(C)C)C(=O)N[C@H](C(=O)NCC(N)=O)CSCC(=O)N[C@@H](Cc2ccc(O)cc2)C(=O)N(C)[C@@H](C)C(=O)N[C@@H](CC(N)=O)C(=O)N2CCC[C@H]2C(=O)N[C@@H](CNC(=O)Nc2ccccc2)C(=O)N[C@@H](CC(C)C)C(=O)N2C[C@H](O)C[C@H]2C(=O)N[C@@H](Cc2c[nH]c3ccccc23)C(=O)N[C@@H](CCNC(=O)Nc2ccccc2)C(=O)N[C@@H](Cc2cn(CC(=O)O)c3ccccc23)C(=O)N1C [Example 1009] ({CH2CO}-Y[NMeA]NP[Dap]([CO-NHPh])L[Hyp]W[Dab]([CO-NHPh])[Trp(1-CH2COOH)][NMeNle][NMeNle]LCG-NH2; thioether N-14) | 6.5 | –
6 | CCCC[C@H]1C(=O)N(C)[C@@H](CCCC)C(=O)N[C@@H](CC(C)C)C(=O)N[C@H](C(=O)NCC(N)=O)CSCC(=O)N[C@@H](Cc2ccc(O)cc2)C(=O)N(C)[C@@H](C)C(=O)N[C@@H](CC(N)=O)C(=O)N2CCC[C@H]2C(=O)N[C@@H](CNC(=S)Nc2ccc(F)cc2Cl)C(=O)N[C@@H](CC(C)C)C(=O)N2C[C@H](O)C[C@H]2C(=O)N[C@@H](Cc2c[nH]c3ccccc23)C(=O)N[C@@H](CCNC(=S)Nc2ccc(F)cc2Cl)C(=O)N[C@@H](Cc2cn(CC(=O)O)c3ccccc23)C(=O)N1C [Example 1031] ({CH2CO}-Y[NMeA]NP[Dap](X9)L[Hyp]W[Dab](X9)[Trp(1-CH2COOH)][NMeNle][NMeNle]LCG-NH2; thioether N-14) | 2.8 | –

Now from value to compound, other results behind:

Row | IC50 [1] [nM] | Compound | IC50 [nM]
7 | 0.3 | CCCC[C@H]1C(=O)N(C)[C@@H](CCCC)C(=O)N[C@@H](CC(C)C)C(=O)N[C@H](C(=O)NCC(N)=O)CSCC(=O)N[C@@H](Cc2ccc(O)cc2)C(=O)N(C)[C@@H](C)C(=O)N[C@@H](CC(N)=O)C(=O)N2CCC[C@H]2C(=O)N[C@@H](CNC(=O)Nc2c[nH]c3ccccc23)C(=O)N[C@@H](CC(C)C)C(=O)N2C[C@H](O)C[C@H]2C(=O)N[C@@H](Cc2c[nH]c3ccccc23)C(=O)N[C@@H](CCN)C(=O)N[C@@H](Cc2cn(CC(=O)O)c3ccccc23)C(=O)N1C [Example 3041] ({CH2CO}-Y[NMeA]NP[Dap]([CO-X52])L[Hyp]W[Dab][Trp(1-CH2COOH)][NMeNle][NMeNle]LCG-NH2; thioether N-14) | –
8 | 1.5 | CCCC[C@H]1C(=O)N(C)[C@@H](CCCC)C(=O)N[C@@H](CC(C)C)C(=O)N[C@H](C(=O)NCC(N)=O)CSCC(=O)N[C@@H](Cc2ccc(O)cc2)C(=O)N(C)[C@@H](C)C(=O)N[C@@H](CC(N)=O)C(=O)N2CCC[C@H]2C(=O)N[C@@H](CNC(=S)Nc2cccc3ccccc23)C(=O)N[C@@H](CC(C)C)C(=O)N2C[C@H](O)C[C@H]2C(=O)N[C@@H](Cc2c[nH]c3ccccc23)C(=O)N[C@@H](CCNC(=S)Nc2cccc3ccccc23)C(=O)N[C@@H](Cc2cn(CC(=O)O)c3ccccc23)C(=O)N1C [Example 3033] ({CH2CO}-Y[NMeA]NP[Dap](X5)L[Hyp]W[Dab](X5)[Trp(1-CH2COOH)][NMeNle][NMeNle]LCG-NH2; thioether N-14) | –
9 | 4.7 | CCCC[C@H]1C(=O)N(C)[C@@H](CCCC)C(=O)N[C@@H](CC(C)C)C(=O)N[C@H](C(=O)NCC(N)=O)CSCC(=O)N[C@@H](Cc2ccc(O)cc2)C(=O)N(C)[C@@H](C)C(=O)N[C@@H](CC(N)=O)C(=O)N2CCC[C@H]2C(=O)N[C@@H](CN)C(=O)N[C@@H](CC(C)C)C(=O)N2C[C@H](O)C[C@H]2C(=O)N[C@@H](Cc2c[nH]c3ccccc23)C(=O)N[C@@H](CCNC(=O)Nc2cc(Cl)ccc2C)C(=O)N[C@@H](Cc2cn(CC(=O)O)c3ccccc23)C(=O)N1C [Example 1117] ({CH2CO}-Y[NMeA]NP[Dap]L[Hyp]W[Dab]([CO-X15])[Trp(1-CH2COOH)][NMeNle][NMeNle]LCG-NH2; thioether N-14) | –
10 | 3.7 | CCCC[C@H]1C(=O)N(C)[C@@H](CCCC)C(=O)N[C@@H](CC(C)C)C(=O)N[C@H](C(=O)NCC(N)=O)CSCC(=O)N[C@@H](Cc2ccc(O)cc2)C(=O)N(C)[C@@H](C)C(=O)N[C@@H](CC(N)=O)C(=O)N2CCC[C@H]2C(=O)N[C@@H](CNC(=S)Nc2ccc3c(c2)Cc2ccccc2-3)C(=O)N[C@@H](CC(C)C)C(=O)N2C[C@H](O)C[C@H]2C(=O)N[C@@H](Cc2c[nH]c3ccccc23)C(=O)N[C@@H](CCN)C(=O)N[C@@H](Cc2cn(CC(=O)O)c3ccccc23)C(=O)N1C [Example 2010] ({CH2CO}-Y[NMeA]NP[Dap](X1)L[Hyp]W[Dab][Trp(1-CH2COOH)][NMeNle][NMeNle]LCG-NH2; thioether N-14) | –
11 | 11 | CCCC[C@H]1C(=O)N(C)[C@@H](CCCC)C(=O)N[C@@H](CC(C)C)C(=O)N[C@H](C(=O)NCC(N)=O)CSCC(=O)N[C@@H](Cc2ccc(O)cc2)C(=O)N(C)[C@@H](C)C(=O)N[C@@H](CC(N)=O)C(=O)N2CCC[C@H]2C(=O)N[C@@H](CNC(=O)Nc2cc3ccccc3s2)C(=O)N[C@@H](CC(C)C)C(=O)N2C[C@H](O)C[C@H]2C(=O)N[C@@H](Cc2c[nH]c3ccccc23)C(=O)N[C@@H](CCNC(=O)Nc2cc3ccccc3s2)C(=O)N[C@@H](Cc2cn(CC(=O)O)c3ccccc23)C(=O)N1C [Example 3022] ({CH2CO}-Y[NMeA]NP[Dap]([CO-X45])L[Hyp]W[Dab]([CO-X45])[Trp(1-CH2COOH)][NMeNle][NMeNle]LCG-NH2; thioether N-14) | –
12 | 5.6 | CCCC[C@H]1C(=O)N(C)[C@@H](CCCC)C(=O)N[C@@H](CC(C)C)C(=O)N[C@H](C(=O)NCC(N)=O)CSCC(=O)N[C@@H](Cc2ccc(O)cc2)C(=O)N(C)[C@@H](C)C(=O)N[C@@H](CC(N)=O)C(=O)N2CCC[C@H]2C(=O)N[C@@H](CNC(=S)Nc2ccc3nsnc3c2)C(=O)N[C@@H](CC(C)C)C(=O)N2C[C@H](O)C[C@H]2C(=O)N[C@@H](Cc2c[nH]c3ccccc23)C(=O)N[C@@H](CCNC(=S)Nc2ccc3nsnc3c2)C(=O)N[C@@H](Cc2cn(CC(=O)OC)c3ccccc23)C(=O)N1C [Example 3056] ({CH2CO}-Y[NMeA]NP[Dap](X59)L[Hyp]W[Dab](X59)[Trp(1-CH2CO2Me)][NMeNle][NMeNle]LCG-NH2; thioether N-14) | –
13 | 4.1 | CCCC[C@H]1C(=O)N(C)[C@@H](CCCC)C(=O)N[C@@H](CC(C)C)C(=O)N[C@H](C(=O)NCC(N)=O)CSCC(=O)N[C@@H](Cc2ccc(O)cc2)C(=O)N(C)[C@@H](C)C(=O)N[C@@H](CC(N)=O)C(=O)N2CCC[C@H]2C(=O)N[C@@H](CNC(=O)Nc2cccc(C(=O)OCC)c2)C(=O)N[C@@H](CC(C)C)C(=O)N2C[C@H](O)C[C@H]2C(=O)N[C@@H](Cc2c[nH]c3ccccc23)C(=O)N[C@@H](CCN)C(=O)N[C@@H](Cc2cn(CC(=O)O)c3ccccc23)C(=O)N1C [Example 1078] ({CH2CO}-Y[NMeA]NP[Dap]([CO-3Abz-OEt])L[Hyp]W[Dab][Trp(1-CH2COOH)][NMeNle][NMeNle]LCG-NH2; thioether N-14) | –
